Experimental data published in US20230113037A1 (Bayer Aktiengesellschaft, priority 2019, published 2023).
Read-outs that look alike come from different tables or passages of the source. One block for each compound: values may come before it.

Experiments:
[1] = target: T1, AHR (Homo sapiens, UniProt P35869); experiment: In vitro assay 1: antagonism in human cell line (AHR transactivation, firefly luciferase reporter, kynurenic acid prestimulated); format: cell-based; settings: AHR Antagonism Human IC50 [M]
T1 construct: U87 MG glioblastoma cells (ATCC #HTB-14) endogenously expressing AHR; endogenous in cells; host or cells: U87 MG glioblastoma cells (ATCC #HTB-14)
T1 sequence (P35869 11-848): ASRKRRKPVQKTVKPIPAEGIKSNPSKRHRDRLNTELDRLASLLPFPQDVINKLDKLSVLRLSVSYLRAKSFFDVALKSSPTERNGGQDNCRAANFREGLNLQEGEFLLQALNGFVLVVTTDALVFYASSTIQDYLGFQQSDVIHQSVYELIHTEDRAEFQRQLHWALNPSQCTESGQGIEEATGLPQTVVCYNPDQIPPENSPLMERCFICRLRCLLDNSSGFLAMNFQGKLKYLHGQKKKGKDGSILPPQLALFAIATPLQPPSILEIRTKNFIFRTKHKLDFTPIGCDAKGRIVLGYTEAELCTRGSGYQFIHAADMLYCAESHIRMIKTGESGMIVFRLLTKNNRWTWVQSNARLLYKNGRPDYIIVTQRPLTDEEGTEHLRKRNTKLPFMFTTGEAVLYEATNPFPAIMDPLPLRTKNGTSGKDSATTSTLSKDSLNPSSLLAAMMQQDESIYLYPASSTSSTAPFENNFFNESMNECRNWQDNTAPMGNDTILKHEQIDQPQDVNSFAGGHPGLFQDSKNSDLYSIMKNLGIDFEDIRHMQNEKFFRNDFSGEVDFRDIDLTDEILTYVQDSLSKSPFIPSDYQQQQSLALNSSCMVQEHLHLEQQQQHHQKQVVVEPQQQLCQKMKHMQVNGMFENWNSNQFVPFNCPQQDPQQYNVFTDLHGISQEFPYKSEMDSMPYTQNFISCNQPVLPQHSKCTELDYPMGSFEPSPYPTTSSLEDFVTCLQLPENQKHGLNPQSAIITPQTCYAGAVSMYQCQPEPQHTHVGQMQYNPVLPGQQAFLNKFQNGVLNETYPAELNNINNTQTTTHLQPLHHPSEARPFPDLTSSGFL
Outline: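 U87 MG + DRE-firefly/constitutive-Renilla stable reporters; kynurenic acid prestim; dual-luc read; Renilla = tox; normalized vs pos/neg controls (pos: 150 μM KYNA + 5 μM staurosporine).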

[2] = target: T2, AHR (Mus musculus, UniProt P30561); experiment: In vitro assay 3: antagonism in mouse cell line (AHR transactivation, firefly luciferase reporter, kynurenic acid prestimulated); format: cell-based; settings: 200 μM kynurenic acid, 20 hours, read-out: AHR Antagonism Mouse IC50
T2 sequence (P30561 1-848 P471L/N533S/M589L): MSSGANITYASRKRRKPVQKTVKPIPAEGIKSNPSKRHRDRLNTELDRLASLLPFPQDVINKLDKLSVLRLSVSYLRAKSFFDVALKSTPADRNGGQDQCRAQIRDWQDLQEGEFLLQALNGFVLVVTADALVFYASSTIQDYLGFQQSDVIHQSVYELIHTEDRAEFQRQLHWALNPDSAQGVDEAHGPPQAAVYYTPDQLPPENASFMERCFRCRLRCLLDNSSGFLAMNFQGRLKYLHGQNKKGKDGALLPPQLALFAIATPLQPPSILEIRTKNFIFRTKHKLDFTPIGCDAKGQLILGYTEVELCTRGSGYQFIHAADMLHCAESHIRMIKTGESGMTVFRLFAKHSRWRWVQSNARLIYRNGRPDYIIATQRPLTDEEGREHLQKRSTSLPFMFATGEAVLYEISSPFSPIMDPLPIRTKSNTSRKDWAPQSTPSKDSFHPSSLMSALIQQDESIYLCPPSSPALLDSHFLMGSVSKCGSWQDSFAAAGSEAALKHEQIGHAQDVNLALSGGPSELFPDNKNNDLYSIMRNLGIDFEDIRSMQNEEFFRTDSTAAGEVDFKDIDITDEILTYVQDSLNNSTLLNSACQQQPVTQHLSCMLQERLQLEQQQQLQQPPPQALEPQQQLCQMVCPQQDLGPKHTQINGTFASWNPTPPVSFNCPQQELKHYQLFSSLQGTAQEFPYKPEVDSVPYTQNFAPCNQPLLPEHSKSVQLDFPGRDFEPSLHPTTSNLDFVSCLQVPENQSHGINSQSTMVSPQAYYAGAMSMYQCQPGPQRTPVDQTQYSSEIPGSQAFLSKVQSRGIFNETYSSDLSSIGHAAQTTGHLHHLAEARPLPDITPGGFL
Outline: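 Mouse cells stably carrying a DRE-driven AHR-inducible firefly luciferase reporter were prestimulated with the endogenous agonist kynurenic acid before compound addition. Luciferase read by SteadyGlo; cells without kynurenic acid served as full-inhibition control, with normalization to positive and negative controls. Repeat tests reported as mean or median.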

[3] = Hepa 1c1c7 cells, firefly luciferase reporter

Structure (SMILES): O=C1NCCNC[C@H]1Nc1nc2ccccc2c2nc(-c3cccc(Cl)c3Cl)nn12 [Example 263, (6R)-6-{[2-(2,3-dichlorophenyl)[1,2,4]triazolo[1,5-c]quinazolin-5-yl]amino}-1,4-diazepan-5-one]
IC50 [1]: 3.86e-07 M
IC50 ([2]; mouse Hepa 1c1c7 cells): 8.93 nM

Structure (SMILES): COc1cccc(-c2nc3c4ccccc4nc(N[C@@H](C(N)=O)C(C)C)n3n2)c1 [Example 103, N^2-[2-(3-methoxyphenyl)[1,2,4]triazolo[1,5-c]quinazolin-5-yl]-D-valinamide]
IC50 [1]: 4.43e-09 M
IC50 ([2]; mouse Hepa 1c1c7 cells): 0.345 nM

Structure (SMILES): COc1cccc(-c2nc3c4ccccc4nc(N[C@@H](C(N)=O)[C@H](C)OCc4ccccc4)n3n2)c1 [Example 97, O-benzyl-N^2-[2-(3-methoxyphenyl)[1,2,4]triazolo[1,5-c]quinazolin-5-yl]-D-threoninamide]
IC50 [1]: 1.56e-07 M
IC50 ([2]; mouse Hepa 1c1c7 cells): 84.1 nM

Structure (SMILES): O=C1NCCNC[C@H]1Nc1nc2ccccc2c2nc(-c3cn[nH]c3)nn12 [Example 264, (6R)-6-{[2-(1H-pyrazol-4-yl)[1,2,4]triazolo[1,5-c]quinazolin-5-yl]amino}-1,4-diazepan-5-one]
IC50 [1]: > 2e-05 M
IC50 ([2]; mouse Hepa 1c1c7 cells): > 20000 nM

Structure (SMILES): O=C1NCCCC[C@H]1Nc1nc2ccccc2c2nc(-c3ccsc3)nn12 [Example 340, (3R)-3-{[2-(thiophen-3-yl)[1,2,4]triazolo[1,5-c]quinazolin-5-yl]amino}azepan-2-one]
IC50 [1]: 7.33e-10 M
IC50 ([2]; mouse Hepa 1c1c7 cells): 0.517 nM

Structure (SMILES): N#Cc1ccc(-c2nc3c4ccccc4nc(N[C@@H]4CCCCNC4=O)n3n2)cc1 [Example 387, 4-(5-{[(3R)-2-oxoazepan-3-yl]amino}[1,2,4]triazolo[1,5-c]quinazolin-2-yl)benzonitrile]
IC50 [1]: 7.93e-10 M
IC50 ([2]; mouse Hepa 1c1c7 cells): 0.398 nM

Structure (SMILES): COc1cccc(-c2nc3c4ccccc4nc(NC4CCNC4=O)n3n2)c1 (single isomer, unassigned) [Example 121, 3-{[2-(3-methoxyphenyl)[1,2,4]triazolo[1,5-c]quinazolin-5-yl]amino}pyrrolidin-2-one]
IC50 [1]: 1.96e-07 M
IC50 ([2]; mouse Hepa 1c1c7 cells): 275 nM

Structure (SMILES): COc1cccc(-c2nc3c4ccccc4nc(NC4CCCNC4=O)n3n2)c1 (single isomer, unassigned) [Example 118, 3-{[2-(3-methoxyphenyl)[1,2,4]triazolo[1,5-c]quinazolin-5-yl]amino}piperidin-2-one]
IC50 [1]: 6.43e-08 M
IC50 ([2]; mouse Hepa 1c1c7 cells): 40.2 nM

Structure (SMILES): COc1cccc(-c2nc3c4c(F)cccc4nc(N[C@H](C)C(N)=O)n3n2)c1 [Example 184, N^2-[10-fluoro-2-(3-methoxyphenyl)[1,2,4]triazolo[1,5-c]quinazolin-5-yl]-D-alaninamide]
IC50 [1]: 9.66e-09 M
IC50 ([2]; mouse Hepa 1c1c7 cells): 62.8 nM

Structure (SMILES): Cc1ccccc1-c1nc2c3ccccc3nc(NC3CCCNC3=O)n2n1 (stereo not drawn) [Example 44, 3-{[2-(2-methylphenyl)[1,2,4]triazolo[1,5-c]quinazolin-5-yl]amino}piperidin-2-one]
IC50 [1]: 1.57e-08 M
IC50 ([2]; mouse Hepa 1c1c7 cells): 16.9 nM

Structure (SMILES): COc1ccc(-c2nc3c4cc(F)ccc4nc(N[C@@H]4CCCCNC4=O)n3n2)cc1 [Example 231, (3R)-3-{[9-fluoro-2-(4-methoxyphenyl)[1,2,4]triazolo[1,5-c]quinazolin-5-yl]amino}azepan-2-one]
IC50 [1]: 8.14e-10 M
IC50 ([2]; mouse Hepa 1c1c7 cells): 0.406 nM

The next lines start with the values.

IC50 [1]: 7.97e-08 M
IC50 ([2]; mouse Hepa 1c1c7 cells): 292 nM
Structure (SMILES): CCn1cc(-c2nc3c4cccc(OC)c4nc(N[C@@H]4CCCCNC4=O)n3n2)cn1 [Example 754, (3R)-3-{[2-(1-ethyl-1H-pyrazol-4-yl)-7-methoxy[1,2,4]triazolo[1,5-c]quinazolin-5-yl]amino}azepan-2-one]

IC50 ([1]; firefly luciferase reporter): 1.37e-08 M
IC50 [2, 3]: 20.2 nM
Structure (SMILES): CCCNC(=O)[C@@H](C)Nc1nc2c(Br)cccc2c2nc(-c3cnn(C)c3)nn12 [Example 796, N^2-[7-bromo-2-(1-methyl-1H-pyrazol-4-yl)[1,2,4]triazolo[1,5-c]quinazolin-5-yl]-N-propyl-D-alaninamide]

IC50 ([1]; firefly luciferase reporter): 2.2e-08 M
IC50 [2, 3]: 22.1 nM
Structure (SMILES): C[C@@H](Nc1nc2c(Br)cccc2c2nc(-c3cnn(C)c3)nn12)C(=O)N1CCN(C)CC1 [Example 786, (2R)-2-{[7-bromo-2-(1-methyl-1H-pyrazol-4-yl)[1,2,4]triazolo[1,5-c]quinazolin-5-yl]amino}-1-(4-methylpiperazin-1-yl)propan-1-one]

IC50 ([1]; firefly luciferase reporter): 4.23e-07 M
IC50 [2, 3]: 5550 nM
Structure (SMILES): CCSc1cccc2c1nc(N[C@@H]1CNCCNC1=O)n1nc(-c3cnn(C)c3)nc21 [Example 938]

IC50 [1]: 3.53e-09 M
IC50 ([2]; mouse Hepa 1c1c7 cells): 4.21 nM
Structure (SMILES): COc1ccc(-c2nc3c4ccccc4nc(N[C@@H]4CCCCNC4=O)n3n2)c(OC(F)(F)F)c1 [Example 508, (3R)-3-({2-[4-methoxy-2-(trifluoromethoxy)phenyl][1,2,4]triazolo[1,5-c]quinazolin-5-yl}amino)azepan-2-one]

IC50 [1]: 5.18e-08 M
IC50 ([2]; mouse Hepa 1c1c7 cells): 34 nM
Structure (SMILES): O=C1NCCCC[C@H]1Nc1nc2ccccc2c2nc(-c3cnn(C4COC4)c3)nn12 [Example 595, (3R)-3-({2-[1-(oxetan-3-yl)-1H-pyrazol-4-yl][1,2,4]triazolo[1,5-c]quinazolin-5-yl}amino)azepan-2-one]

IC50 [1]: 1.47e-09 M
IC50 ([2]; mouse Hepa 1c1c7 cells): 2.31 nM
Structure (SMILES): O=C1NCCCC[C@H]1Nc1nc2ccccc2c2nc(-c3ccc(Cl)cc3OC(F)(F)F)nn12 [Example 517, (3R)-3-({2-[4-chloro-2-(trifluoromethoxy)phenyl][1,2,4]triazolo[1,5-c]quinazolin-5-yl}amino)azepan-2-one]

IC50 [1]: 2.44e-06 M
IC50 ([2]; mouse Hepa 1c1c7 cells): 561 nM
Structure (SMILES): Cn1cc(-c2nc3c4cccc(F)c4nc(N[C@@H]4CNCCNC4=O)n3n2)cn1 [Example 428]

IC50 ([1]; firefly luciferase reporter): 2.58e-09 M
IC50 [2, 3]: 5.68 nM
Structure (SMILES): O=C1NCCCC[C@H]1Nc1nc2c(Br)cccc2c2nc(-c3cnn(CC4CCC4)c3)nn12 [Example 832, (3R)-3-({7-bromo-2-[1-(cyclobutylmethyl)-1H-pyrazol-4-yl][1,2,4]triazolo[1,5-c]quinazolin-5-yl}amino)azepan-2-one]

IC50 ([1]; firefly luciferase reporter): 1.86e-09 M
IC50 [2, 3]: 4.12 nM
Structure (SMILES): COc1ccc(-c2nc3c4c(CO)cccc4nc(N[C@@H]4CCCCNC4=O)n3n2)cc1 [Example 862, (3R)-3-{[10-(hydroxymethyl)-2-(4-methoxyphenyl)[1,2,4]triazolo[1,5-c]quinazolin-5-yl]amino}azepan-2-one]

IC50 [1]: 1.53e-08 M
IC50 ([2]; mouse Hepa 1c1c7 cells): 4.73 nM
Structure (SMILES): COc1ccc(-c2nc3c4ccccc4nc(N[C@@H]4CNCCNC4=O)n3n2)c(C)c1 [Example 410, (6R)-6-{[2-(4-methoxy-2-methylphenyl)[1,2,4]triazolo[1,5-c]quinazolin-5-yl]amino}-1,4-diazepan-5-one]

IC50 [1]: 4.89e-06 M
IC50 ([2]; mouse Hepa 1c1c7 cells): 264 nM
Structure (SMILES): CC[C@H](Nc1nc2ccccc2c2nc(-c3cccc(C#N)c3)nn12)C(N)=O [Example 442, (2S)-2-{[2-(3-cyanophenyl)[1,2,4]triazolo[1,5-c]quinazolin-5-yl]amino}butanamide]

IC50 [1]: 7.8e-09 M
IC50 ([2]; mouse Hepa 1c1c7 cells): 70.9 nM
Structure (SMILES): COc1ccc(-c2nc3c4cccc(C(C)C)c4nc(N[C@@H]4CNCCNC4=O)n3n2)cc1 [Example 429, (6R)-6-{[2-(4-methoxyphenyl)-7-(propan-2-yl)[1,2,4]triazolo[1,5-c]quinazolin-5-yl]amino}-1,4-diazepan-5-one]
